Reference: ChEMBL document CHEMBL5046228 (Eur J Med Chem, 2022)

Tests used:
NCI-H1975 [1] = experiment: Induction of cell cycle arrest in human NCI-H1975 cells assessed as accumulation at G0/G1 phase at 0.1 uM after 36 hrs by PI staining based flow cytometry analysis (reference value: 24.2%); assay type: functional
NCI-H1299 [2] = experiment: Induction of apoptosis in human NCI-H1299 cells assessed as increase in late apoptotic cells at 2.5 uM after 36 hrs by annexin-V-FITC/PI staining based flow cytometric analysis (reference value: 4.39%); assay type: functional
NCI-H1975 [3] = experiment: Induction of apoptosis in human NCI-H1975 cells assessed as increase in late apoptotic cells at 0.1 uM after 36 hrs by annexin-V-FITC/PI staining based flow cytometric analysis (reference value: 3.85%); assay type: functional
in vitro = settings: human
NCI-H1975 [4] = experiment: Induction of apoptosis in human NCI-H1975 cells assessed as increase in necrotic cells at 0.1 uM after 36 hrs by annexin-V-FITC/PI staining based flow cytometric analysis (reference value: 0.35%); assay type: functional
NCI-H1975 [5] = experiment: Induction of apoptosis in human NCI-H1975 cells assessed as increase in viable cells at 0.1 uM after 36 hrs by annexin-V-FITC/PI staining based flow cytometric analysis (reference value: 94.6%); assay type: functional
NCI-H1975 [6] = experiment: Induction of apoptosis in human NCI-H1975 cells assessed as increase in early apoptotic cells at 0.5 uM after 36 hrs by annexin-V-FITC/PI staining based flow cytometric analysis (reference value: 1.24%); assay type: functional
NCI-H1299 [7] = experiment: Induction of cell cycle arrest in human NCI-H1299 cells assessed as accumulation at G2/M phase at 0.1 uM after 36 hrs by PI staining based flow cytometry analysis (reference value: 5.6%); assay type: functional
NCI-H1299 [8] = experiment: Induction of cell cycle arrest in human NCI-H1299 cells assessed as accumulation at S phase at 0.1 uM after 36 hrs by PI staining based flow cytometry analysis (reference value: 24.8%); assay type: functional
NCI-H1975 [9] = experiment: Induction of apoptosis in human NCI-H1975 cells assessed as increase in early apoptotic cells at 2.5 uM after 36 hrs by annexin-V-FITC/PI staining based flow cytometric analysis (reference value: 1.24%); assay type: functional
[10] = target: Epidermal growth factor receptor (Homo sapiens, UniProt P00533, EX19DEL); experiment: Inhibition of EGFR del19 (unknown origin) using flurogenic substrate in presence of ATP by HTRF assay
Epidermal growth factor receptor (Homo sapiens, UniProt P00533, EX19DEL), sequence (P00533 whole entry, looked up, stated change not applied): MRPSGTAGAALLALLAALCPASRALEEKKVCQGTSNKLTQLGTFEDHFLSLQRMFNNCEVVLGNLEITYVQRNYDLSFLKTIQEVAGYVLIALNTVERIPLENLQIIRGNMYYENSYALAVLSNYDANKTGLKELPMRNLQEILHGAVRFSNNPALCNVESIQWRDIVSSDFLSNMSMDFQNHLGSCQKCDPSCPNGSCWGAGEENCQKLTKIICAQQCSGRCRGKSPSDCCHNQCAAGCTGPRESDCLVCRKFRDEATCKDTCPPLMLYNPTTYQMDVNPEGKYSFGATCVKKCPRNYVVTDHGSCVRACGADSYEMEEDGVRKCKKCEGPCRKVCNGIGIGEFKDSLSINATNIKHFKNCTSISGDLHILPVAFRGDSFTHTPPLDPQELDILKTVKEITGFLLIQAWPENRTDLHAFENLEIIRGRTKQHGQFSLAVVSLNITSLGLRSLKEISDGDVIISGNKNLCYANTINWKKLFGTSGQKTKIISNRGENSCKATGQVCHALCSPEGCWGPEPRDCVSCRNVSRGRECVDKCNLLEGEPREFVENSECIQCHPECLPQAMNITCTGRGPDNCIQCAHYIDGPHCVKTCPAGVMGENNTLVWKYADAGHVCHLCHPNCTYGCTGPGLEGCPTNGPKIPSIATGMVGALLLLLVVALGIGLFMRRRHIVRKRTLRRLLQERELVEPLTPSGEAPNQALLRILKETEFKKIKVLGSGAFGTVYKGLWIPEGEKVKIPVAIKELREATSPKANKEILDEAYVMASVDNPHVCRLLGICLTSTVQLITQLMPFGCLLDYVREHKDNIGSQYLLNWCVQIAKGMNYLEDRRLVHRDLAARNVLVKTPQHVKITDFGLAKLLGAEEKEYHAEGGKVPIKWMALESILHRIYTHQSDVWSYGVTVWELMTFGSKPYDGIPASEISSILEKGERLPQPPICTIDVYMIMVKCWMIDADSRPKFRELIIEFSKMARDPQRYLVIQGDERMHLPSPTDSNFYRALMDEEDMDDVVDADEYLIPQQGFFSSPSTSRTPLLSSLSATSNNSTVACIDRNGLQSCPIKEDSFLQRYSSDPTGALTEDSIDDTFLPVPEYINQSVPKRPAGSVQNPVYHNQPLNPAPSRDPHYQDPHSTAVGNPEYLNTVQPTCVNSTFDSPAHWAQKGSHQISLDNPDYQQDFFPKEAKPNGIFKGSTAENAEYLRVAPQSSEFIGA

NCI-H1299 [11] = experiment: Induction of cell cycle arrest in human NCI-H1299 cells assessed as accumulation at G2/M phase at 0.5 uM after 36 hrs by PI staining based flow cytometry analysis (reference value: 5.6%); assay type: functional
NCI-H1975 [12] = experiment: Induction of apoptosis in human NCI-H1975 cells assessed as increase in early apoptotic cells at 0.1 uM after 36 hrs by annexin-V-FITC/PI staining based flow cytometric analysis (reference value: 1.24%); assay type: functional
NCI-H1975 [13] = experiment: Induction of apoptosis in human NCI-H1975 cells assessed as increase in viable cells at 2.5 uM after 36 hrs by annexin-V-FITC/PI staining based flow cytometric analysis (reference value: 94.6%); assay type: functional
NCI-H1299 [14] = experiment: Induction of cell cycle arrest in human NCI-H1299 cells assessed as accumulation at G2/M phase at 0.02 uM after 36 hrs by PI staining based flow cytometry analysis (reference value: 5.6%); assay type: functional
NCI-H1299 [15] = experiment: Induction of apoptosis in human NCI-H1299 cells assessed as increase in late apoptotic cells at 0.5 uM after 36 hrs by annexin-V-FITC/PI staining based flow cytometric analysis (reference value: 4.39%); assay type: functional
NCI-H1975 [16] = experiment: Induction of apoptosis in human NCI-H1975 cells assessed as increase in necrotic cells at 0.5 uM after 36 hrs by annexin-V-FITC/PI staining based flow cytometric analysis (reference value: 0.35%); assay type: functional
[17] = Selectivity index, ratio of IC50 Inhibition of wild type EGFR (unknown origin) to IC50 for Inhibition of EGFR T790M/C797S double mutant (unknown origin)
[18] = target: Epidermal growth factor receptor (Homo sapiens, UniProt P00533, C797S/T790M); experiment: Inhibition of EGFR T790M/C797S double mutant (unknown origin) using flurogenic substrate in presence of ATP by HTRF assay
Epidermal growth factor receptor (Homo sapiens, UniProt P00533, C797S/T790M), sequence (P00533 25-1210 T790M/C797S limits assumed): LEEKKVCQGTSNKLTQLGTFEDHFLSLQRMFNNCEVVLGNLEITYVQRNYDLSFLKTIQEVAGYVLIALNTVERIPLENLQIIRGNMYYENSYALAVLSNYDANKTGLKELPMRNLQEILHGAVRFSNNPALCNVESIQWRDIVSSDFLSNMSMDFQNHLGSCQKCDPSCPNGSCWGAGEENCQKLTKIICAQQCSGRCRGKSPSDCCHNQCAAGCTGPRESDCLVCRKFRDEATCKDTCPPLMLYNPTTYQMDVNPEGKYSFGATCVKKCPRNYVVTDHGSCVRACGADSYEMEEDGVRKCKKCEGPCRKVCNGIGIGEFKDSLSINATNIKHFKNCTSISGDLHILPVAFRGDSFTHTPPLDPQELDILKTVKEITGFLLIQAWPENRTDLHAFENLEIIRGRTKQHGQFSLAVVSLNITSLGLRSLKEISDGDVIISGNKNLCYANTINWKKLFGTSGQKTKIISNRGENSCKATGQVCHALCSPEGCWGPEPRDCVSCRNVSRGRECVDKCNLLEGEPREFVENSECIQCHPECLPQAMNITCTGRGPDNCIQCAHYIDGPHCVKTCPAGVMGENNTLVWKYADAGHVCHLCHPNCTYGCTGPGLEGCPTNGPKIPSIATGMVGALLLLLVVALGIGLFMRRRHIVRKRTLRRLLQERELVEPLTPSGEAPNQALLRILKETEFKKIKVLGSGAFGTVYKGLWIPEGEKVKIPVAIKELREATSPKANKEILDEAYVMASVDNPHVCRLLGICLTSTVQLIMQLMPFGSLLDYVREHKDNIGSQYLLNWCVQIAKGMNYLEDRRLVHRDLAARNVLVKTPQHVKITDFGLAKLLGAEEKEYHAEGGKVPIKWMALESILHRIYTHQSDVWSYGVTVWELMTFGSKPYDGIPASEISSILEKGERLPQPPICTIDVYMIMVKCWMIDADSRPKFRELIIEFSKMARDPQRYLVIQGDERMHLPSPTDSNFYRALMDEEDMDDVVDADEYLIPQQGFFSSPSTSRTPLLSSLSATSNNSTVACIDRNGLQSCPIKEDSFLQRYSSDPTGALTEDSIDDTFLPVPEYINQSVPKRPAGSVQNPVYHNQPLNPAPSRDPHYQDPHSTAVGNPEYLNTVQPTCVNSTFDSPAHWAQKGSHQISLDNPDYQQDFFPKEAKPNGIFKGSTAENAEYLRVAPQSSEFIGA

[19] = target: Epidermal growth factor receptor (Homo sapiens, UniProt P00533); experiment: Inhibition of wild type EGFR (unknown origin) using flurogenic substrate in presence of ATP by HTRF assay
Epidermal growth factor receptor (Homo sapiens, UniProt P00533), sequence (P00533 whole entry): as the sequence (P00533 whole entry, looked up, stated change not applied) above

NCI-H1299 [20] = experiment: Induction of cell cycle arrest in human NCI-H1299 cells assessed as accumulation at S phase at 0.02 uM after 36 hrs by PI staining based flow cytometry analysis (reference value: 24.8%); assay type: functional
NCI-H1299 [21] = experiment: Induction of cell cycle arrest in human NCI-H1299 cells assessed as accumulation at S phase at 2.5 uM after 36 hrs by PI staining based flow cytometry analysis (reference value: 24.8%); assay type: functional
NCI-H1299 [22] = experiment: Induction of apoptosis in human NCI-H1299 cells assessed as increase in early apoptotic cells at 0.1 uM after 36 hrs by annexin-V-FITC/PI staining based flow cytometric analysis (reference value: 0.79%); assay type: functional
NCI-H1975 [23] = experiment: Induction of cell cycle arrest in human NCI-H1975 cells assessed as accumulation at S phase at 0.1 uM after 36 hrs by PI staining based flow cytometry analysis (reference value: 32.7 %); assay type: functional
NCI-H1975 [24] = experiment: Induction of apoptosis in human NCI-H1975 cells assessed as increase in viable cells at 0.5 uM after 36 hrs by annexin-V-FITC/PI staining based flow cytometric analysis (reference value: 94.6%); assay type: functional
NCI-H1975 [25] = experiment: cells; assay type: functional, cell-based; settings: Homo sapiens, NCI-H1975, 72 h
NCI-H1975 [26] = experiment: Induction of cell cycle arrest in human NCI-H1975 cells assessed as accumulation at G2/M phase at 0.1 uM after 36 hrs by PI staining based flow cytometry analysis (reference value: 43.1%); assay type: functional
NCI-H1299 [27] = experiment: Induction of cell cycle arrest in human NCI-H1299 cells assessed as accumulation at G0/G1 phase at 0.02 uM after 36 hrs by PI staining based flow cytometry analysis (reference value: 70.2%); assay type: functional
NCI-H1299 [28] = experiment: Induction of apoptosis in human NCI-H1299 cells assessed as increase in early apoptotic cells at 0.5 uM after 36 hrs by annexin-V-FITC/PI staining based flow cytometric analysis (reference value: 0.79%); assay type: functional
NCI-H1299 [29] = experiment: Induction of apoptosis in human NCI-H1299 cells assessed as increase in necrotic cells at 0.5 uM after 36 hrs by annexin-V-FITC/PI staining based flow cytometric analysis (reference value: 0.75%); assay type: functional
NCI-H1299 [30] = experiment: Induction of cell cycle arrest in human NCI-H1299 cells assessed as accumulation at S phase at 0.5 uM after 36 hrs by PI staining based flow cytometry analysis (reference value: 24.8%); assay type: functional
NCI-H1975 [31] = experiment: Induction of cell cycle arrest in human NCI-H1975 cells assessed as accumulation at G2/M phase at 0.5 uM after 36 hrs by PI staining based flow cytometry analysis (reference value: 43.1%); assay type: functional

## C#CCN(C)CCN(C)c1cc(OC)c(Nc2nccc(Nc3cn(C)c4ccccc34)n2)cc1NC(=O)C=C
NCI-H1975 [1]
  Activity: 19.1%
NCI-H1299 [2]
  Activity: 6.35%
NCI-H1975 [3]
  Activity: 3.3%
In vitro
  selectivity ratio: 27500
NCI-H1975 [4]
  Activity: 0.019%
NCI-H1975 [5]
  Activity: 92.2%
NCI-H1975 [6]
  Activity: 12.2%
NCI-H1299 [7]
  Activity: 5.7%
NCI-H1299 [8]
  Activity: 23.7%
NCI-H1975 [9]
  Activity: 45.4%
[10]
  IC50: 9.57 nM
NCI-H1299 [11]
  Activity: 6%
NCI-H1975 [12]
  Activity: 4.45%
NCI-H1975 [13]
  Activity: 47.3%
NCI-H1299 [14]
  Activity: 6.8%
NCI-H1299 [15]
  Activity: 5.63%
NCI-H1975 [16]
  Activity: 0.021%
[17]
  Ratio IC50: > 2490
[18]
  IC50: 4.01 nM
[19]
  IC50: > 10000 nM
NCI-H1299 [20]
  Activity: 23.8%
NCI-H1299 [21]
  Activity: 24.7%
NCI-H1299 [22]
  Activity: 1.06%
NCI-H1975 [23]
  Activity: 22.7%
NCI-H1975 [24]
  Activity: 79.2%
NCI-H1975 [25]
  IC50: 2.58 nM
NCI-H1975 [26]
  Activity: 58.2%
NCI-H1299 [27]
  Activity: 70.4%
NCI-H1299 [28]
  Activity: 1.01%
NCI-H1299 [29]
  Activity: 0.77%
NCI-H1299 [30]
  Activity: 25.6%
NCI-H1975 [31]
  Activity: 62.6%
